Measured values reported in patent US20260256136A1, “STABILIZATION OF ALDEHYDES AND/OR AN ALCOHOLS” (priority 2022, published 2026).

Assays:
[1] = Accelerated storage test of aldehyde mixture with additive, 10 ppm Cu (Example 2); conditions: after 55° C. 14 days without cap; for C16:Acid: before test 1.05, blank 17.72; for Z9-16:Ald: before test 5.09, blank 3.05; for 16:Ald: before test 8.41, blank 6.60; for Z11-16Ald: before test 75.31, blank 54.31
Description: The term “accelerated storage test” as used herein refers to a well known protocol for investigating the stability of a particular composition. The protocol is described in for example the memorandum dated 16 Nov. 2012 from The United States Environmental Protection Agency Washington, D.C. 20460 with the subject title “Accelerated Storage Stability and Corrosion Characteristics Study Protocol”. The protocol evaluates product stability at 54° C.±2° C. for 14 days.

[2] = Accelerated storage test of aldehyde mixture with additive, 40 ppm Cu (Example 1); assay type: physicochemical; conditions: after 55° C. 14 days without cap; for Z9-16:Ald: before test 4.3, blank 3.066023; for C16:Acid: before test 6.7, blank 18.84135; for 16:Ald: before test 7.5, blank 6.659339; for Z11-16Ald: before test 69.4, blank 54.83784, in % (unit assumed)
Description: To a mixture of aldehydes containing; (Z)-9-hexadecenal, (Z)-11-hexadecenal, hexadecanal, (Z)-11-hexadecen-1-ol, (Z)-11-hexadecenoic acid and 40 ppm Cu was added an additive as indicated in table 1 below. The mixture was thoroughly mixed and heated without cap in an oven at 55° C. for 14 days as an accelerated storage test.

[3] = Storage test of aldehyde mixture containing 4-hydroxy-TEMPO and 10 ppm Copper with additive (Example 3); conditions: for Z11-16:OH / Z10-15:Ald / 16:Acid / Z9-16:Ald / 16:Ald / Z11-16:Ald: after 55 C 14 days without cap; for Z11-16:OH: before test 2.16, blank 1.44; for Z10-15:Ald: before test 2.61, blank 2.72; for 16:Acid: before test 3.01, blank 7.94; for Z9-16:Ald: before test 5.33, blank 3.91; for 16:Ald: before test 8.16, blank 6.48; for Z11-16:Ald: before test 74.98, blank 58.18
Description: To a mixture of aldehydes containing; 4-hydroxy-TEMPO (4-hydroxy-2,2,6,6-tetramethylpiperidin-1-oxyl), (Z)-10-pentenenal, (Z)-9-hexadecenal, (Z)-11-hexadecenal, hexadecanal, (Z)-11-hexadecen-1-ol (Z)-11-hexadecenoic acid and 10 ppm Copper in the composition listed in table 3 below was added up to 1% of an additive in table below. The mixture was thoroughly mixed and heated without cap in an oven at 55 C for 14 days.

[4] = Storage test of aldehyde mixture containing 4-hydroxy-TEMPO with additive (Example 4); assay type: physicochemical; conditions: for Heptane / Z11-16:OH / 16:Acid / OH tempo / Z9-16:Ald / 15-1:Ald / 16:Ald / Z11-16:Ald: after 55° C. 14 days without cap; for Heptane: before test 0.04, without additive 0.04; for Z11-16:OH: before test 0.27, without additive 0.06; for 16:Acid: before test 1.05, without additive 6.14; for OH tempo: before test 1.19, without additive 1.11; for Z9-16:Ald: before test 5.09, without additive 3.71; for 15-1:Ald: before test 7.27, without additive 5.83; for 16:Ald: before test 8.41, without additive 6.64; for Z11-16:Ald: before test 75.31, without additive 57.21, in % (unit assumed)
Description: To a mixture of aldehydes containing; 4-hydroxy-TEMPO (4-hydroxy-2,2,6,6-tetramethylpiperidin-1-oxyl), (Z)-10-pentenenal, (Z)-9-hexadecenal, (Z)-11-hexadecenal, hexadecanal, (Z)-11-hexadecen-1-ol and (Z)-11-hexadecenoic acid in the composition listed in table 4 below was added up to 1% of an additive in table below. The mixture was thoroughly mixed and heated without cap in an oven at 55° C. for 14 days.

C16:Acid [1]	Z9-16:Ald [1]	16:Ald [1]	Z11-16Ald [1]	Z9-16:Ald [2]	C16:Acid [2]	16:Ald [2]	Z11-16Ald [2]	SMILES	also measured
17.66	3.07	6.57	54.01	3.085	19.1541	6.634	54.35	Cc1ccc(O)c(-n2nc3ccccc3n2)c1 [Tinuvin P]	–
15.21	3.20	6.81	56.62	3.325	17.1	6.835	52.4909	Cc1cc(-n2nc3ccc(Cl)cc3n2)c(O)c(C(C)(C)C)c1 [Sumisorb]	–
11.32	3.83	3.81	67.75	3.464	14.55	7.376	61.55	CCCOC(=O)c1cc(O)c(O)c(O)c1 [Propyl Gallate]	–
10.34	3.67	7.75	65.65	3.367	16.52	6.913	53.69	CC(C)(C)c1cc(O)ccc1O [TBHQ]	–
16.99	3.12	6.62	54.84	3.135	18.22	6.749	55.81	CC1(C)CC(OC(=O)CCCCCCCCC(=O)OC2CC(C)(C)NC(C)(C)C2)CC(C)(C)N1 [Tinuvin 770]	–
12.54	3.23	6.84	57.13	2.255	12.35	4.755	40.03	C1COCCN1 [Morpholine]	–
16.74	0.00	6.75	55.52	3.115	18.83	6.736	54.86	OCC(O)CO [Glycerol]	–
12.93	3.18	6.65	55.97	2.927	16.74	6.224	51.62	[Na+].[OH-] [Sodium Hydroxide]	–
17.70	3.09	6.65	54.82	3.379	17.008	6.914	54.67	Cc1c(C)c2c(c(C)c1O)CCC(C)(CCCC(C)CCCC(C)CCCC(C)C)O2 (racemic) [Tocopherol]	–

More lines, now with the values behind:

SMILES	C16:Acid [1]	Z9-16:Ald [1]	16:Ald [1]	Z11-16Ald [1]	Z9-16:Ald [2]	C16:Acid [2]	16:Ald [2]	Z11-16Ald [2]	also measured
C[S+](C)[O-] [DMSO]	16.74	3.10	6.68	55.41	3.061	19.17	6.722	55.24	–
O=S1(=O)CCCC1 [Sulfolane]	16.92	3.08	6.60	54.29	3.077	18.34	6.666	54.91	–
CC1(C)CC(O)CC(C)(C)N1[O] [Additive 4-OH-TEMPO, 4-hydroxy-2,2,6,6-tetramethylpiperidin-1-oxyl]	–	–	–	–	–	–	–	–	Z11-16:OH ([3]; 10 ppm Copper): 1.88; Z10-15:Ald ([3]; 10 ppm Copper): 2.69; 16:Acid ([3]; 10 ppm Copper): 4.18; Z9-16:Ald ([3]; 10 ppm Copper): 4.72; 16:Ald ([3]; 10 ppm Copper): 7.51; Z11-16:Ald ([3]; 10 ppm Copper): 68.82; Heptane [4]: 0.04; Z11-16:OH [4]: 0.19; 16:Acid [4]: 3.00; OH tempo [4]: 1.53; Z9-16:Ald [4]: 4.52; 15-1:Ald [4]: 6.54; 16:Ald [4]: 7.60; Z11-16:Ald [4]: 67.41
Nc1nnc(S)s1 [5-Amino-1,3,4-Thiadiazole-2-thiol]	–	–	–	–	–	–	–	–	Z11-16:OH ([3]; 10 ppm Copper): 2.11; Z10-15:Ald ([3]; 10 ppm Copper): 2.95; 16:Acid ([3]; 10 ppm Copper): 3.03; Z9-16:Ald ([3]; 10 ppm Copper): 4.92; 16:Ald ([3]; 10 ppm Copper): 7.81; Z11-16:Ald ([3]; 10 ppm Copper): 72.73; suppressing acid formation and/or degradation of the aldehydes [4]: particularly efficient at suppressing acid formation and/or degradation of the aldehydes; Heptane [4]: 0.04; Z11-16:OH [4]: 0.12; 16:Acid [4]: 1.87; OH tempo [4]: 1.12; Z9-16:Ald [4]: 4.46; 15-1:Ald [4]: 6.82; 16:Ald [4]: 7.78; Z11-16:Ald [4]: 69.41
Cn1ccnc1S [2-mercapto-1-methylimidazole]	–	–	–	–	–	–	–	–	Z11-16:OH ([3]; 10 ppm Copper): 1.92; Z10-15:Ald ([3]; 10 ppm Copper): 2.88; 16:Acid ([3]; 10 ppm Copper): 2.93; Z9-16:Ald ([3]; 10 ppm Copper): 4.83; 16:Ald ([3]; 10 ppm Copper): 7.82; Z11-16:Ald ([3]; 10 ppm Copper): 72.34; suppressing acid formation and/or degradation of the aldehydes [4]: particularly efficient at suppressing acid formation and/or degradation of the aldehydes; Heptane [4]: 0.04; Z11-16:OH [4]: 0.28; 16:Acid [4]: 1.12; OH tempo [4]: 1.12; Z9-16:Ald [4]: 4.88; 15-1:Ald [4]: 6.65; 16:Ald [4]: 8.22; Z11-16:Ald [4]: 73.41
Cc1nnc(S)s1 [5-Methyl-1,3,4-thiadiazole-2-thiol]	–	–	–	–	–	–	–	–	Z11-16:OH ([3]; 10 ppm Copper): 2.12; Z10-15:Ald ([3]; 10 ppm Copper): 2.74; 16:Acid ([3]; 10 ppm Copper): 3.02; Z9-16:Ald ([3]; 10 ppm Copper): 4.69; 16:Ald ([3]; 10 ppm Copper): 7.81; Z11-16:Ald ([3]; 10 ppm Copper): 71.97; suppressing acid formation and/or degradation of the aldehydes [4]: particularly efficient at suppressing acid formation and/or degradation of the aldehydes; Heptane [4]: 0.04; Z11-16:OH [4]: 0.29; 16:Acid [4]: 1.38; OH tempo [4]: 1.14; Z9-16:Ald [4]: 4.38; 15-1:Ald [4]: 6.71; 16:Ald [4]: 8.04; Z11-16:Ald [4]: 71.38
Cc1cc(C(C)(C)C)c(O)c(C(C)(C)C)c1 [BHT]	10.43	3.73	7.73	65.80	3.425	16.05	6.958	54.06	–
Sc1nc2ccccc2[nH]1 [2-mercapto-Benzimidazole]	–	–	–	–	–	–	–	–	OH tempo [3]: 1.11; suppressing acid formation and degradation of the aldehydes ([3]; 55 C 14 days, 10 ppm Copper): particularly efficient at suppressing acid formation and degradation of the aldehydes; Z11-16:OH ([3]; 10 ppm Copper): 1.87; Z10-15:Ald ([3]; 10 ppm Copper): 3.10; 16:Acid ([3]; 10 ppm Copper): 3.80; Z9-16:Ald ([3]; 10 ppm Copper): 4.70; 16:Ald ([3]; 10 ppm Copper): 7.53; Z11-16:Ald ([3]; 10 ppm Copper): 69.33; Heptane [4]: 0.04; Z11-16:OH [4]: 0.00; 16:Acid [4]: 4.23; OH tempo [4]: 1.05; Z9-16:Ald [4]: 3.43; 15-1:Ald [4]: 6.16; 16:Ald [4]: 6.97; Z11-16:Ald [4]: 59.82
COc1ccc(O)c(C(C)(C)C)c1 [BHA]	12.64	3.46	7.33	61.54	3.364	15.55	7.158	59.48	–
CN(C)CCO [Dimethylethanolamine]	17.70	3.09	6.65	54.82	0	11.55	1.242	8.128	–
